Assays:
[1] = target: Tyrosine-protein kinase ABL1 (Homo sapiens, UniProt P00519); test: Inhibition of ABL expressed in baculovirus system by ELISA
[2] = target: T1, Vascular endothelial growth factor receptor 2 (Homo sapiens, UniProt P35968); test: Inhibition of KDR expressed in baculovirus system at 4 ug/ml by ELISA
[3] = target: T1, Vascular endothelial growth factor receptor 2; test: Inhibition of KDR expressed in baculovirus system by ELISA

T1 sequence (P35968 whole entry): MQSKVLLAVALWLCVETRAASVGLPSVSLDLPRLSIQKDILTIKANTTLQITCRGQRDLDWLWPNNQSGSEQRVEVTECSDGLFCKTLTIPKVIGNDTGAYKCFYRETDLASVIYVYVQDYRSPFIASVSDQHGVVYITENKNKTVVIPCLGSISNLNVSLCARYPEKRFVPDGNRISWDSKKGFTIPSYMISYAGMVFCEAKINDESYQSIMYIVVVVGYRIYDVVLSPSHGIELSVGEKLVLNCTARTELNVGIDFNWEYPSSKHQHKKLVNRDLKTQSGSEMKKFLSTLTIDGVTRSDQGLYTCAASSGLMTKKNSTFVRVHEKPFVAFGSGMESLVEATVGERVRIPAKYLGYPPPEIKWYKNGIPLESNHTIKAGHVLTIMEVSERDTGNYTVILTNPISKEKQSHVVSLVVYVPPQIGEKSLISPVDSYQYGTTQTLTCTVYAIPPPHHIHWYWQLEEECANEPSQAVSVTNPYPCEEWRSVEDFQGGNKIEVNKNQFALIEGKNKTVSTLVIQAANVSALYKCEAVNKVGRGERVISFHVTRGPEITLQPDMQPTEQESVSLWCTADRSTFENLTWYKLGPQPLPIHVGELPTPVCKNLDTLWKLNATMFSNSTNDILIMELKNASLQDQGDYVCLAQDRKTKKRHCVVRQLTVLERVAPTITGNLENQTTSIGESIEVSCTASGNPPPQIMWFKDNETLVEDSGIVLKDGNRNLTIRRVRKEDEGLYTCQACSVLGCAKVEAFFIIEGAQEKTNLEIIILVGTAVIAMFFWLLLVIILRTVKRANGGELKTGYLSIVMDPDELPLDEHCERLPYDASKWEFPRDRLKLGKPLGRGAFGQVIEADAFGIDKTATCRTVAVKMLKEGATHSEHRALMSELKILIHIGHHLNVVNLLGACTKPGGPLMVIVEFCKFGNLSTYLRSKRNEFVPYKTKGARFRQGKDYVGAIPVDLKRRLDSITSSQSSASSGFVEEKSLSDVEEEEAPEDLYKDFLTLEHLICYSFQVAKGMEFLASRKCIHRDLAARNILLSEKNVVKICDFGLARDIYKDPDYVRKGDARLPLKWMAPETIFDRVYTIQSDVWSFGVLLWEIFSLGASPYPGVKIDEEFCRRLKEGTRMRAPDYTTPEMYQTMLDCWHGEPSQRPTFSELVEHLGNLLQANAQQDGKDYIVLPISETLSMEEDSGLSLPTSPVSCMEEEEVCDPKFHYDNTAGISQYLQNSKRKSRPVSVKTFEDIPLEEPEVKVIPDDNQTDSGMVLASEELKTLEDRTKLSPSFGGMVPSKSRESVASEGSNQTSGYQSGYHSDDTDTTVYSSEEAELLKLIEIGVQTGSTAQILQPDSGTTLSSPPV
Sequence of Tyrosine-protein kinase ABL1 (P00519 whole entry): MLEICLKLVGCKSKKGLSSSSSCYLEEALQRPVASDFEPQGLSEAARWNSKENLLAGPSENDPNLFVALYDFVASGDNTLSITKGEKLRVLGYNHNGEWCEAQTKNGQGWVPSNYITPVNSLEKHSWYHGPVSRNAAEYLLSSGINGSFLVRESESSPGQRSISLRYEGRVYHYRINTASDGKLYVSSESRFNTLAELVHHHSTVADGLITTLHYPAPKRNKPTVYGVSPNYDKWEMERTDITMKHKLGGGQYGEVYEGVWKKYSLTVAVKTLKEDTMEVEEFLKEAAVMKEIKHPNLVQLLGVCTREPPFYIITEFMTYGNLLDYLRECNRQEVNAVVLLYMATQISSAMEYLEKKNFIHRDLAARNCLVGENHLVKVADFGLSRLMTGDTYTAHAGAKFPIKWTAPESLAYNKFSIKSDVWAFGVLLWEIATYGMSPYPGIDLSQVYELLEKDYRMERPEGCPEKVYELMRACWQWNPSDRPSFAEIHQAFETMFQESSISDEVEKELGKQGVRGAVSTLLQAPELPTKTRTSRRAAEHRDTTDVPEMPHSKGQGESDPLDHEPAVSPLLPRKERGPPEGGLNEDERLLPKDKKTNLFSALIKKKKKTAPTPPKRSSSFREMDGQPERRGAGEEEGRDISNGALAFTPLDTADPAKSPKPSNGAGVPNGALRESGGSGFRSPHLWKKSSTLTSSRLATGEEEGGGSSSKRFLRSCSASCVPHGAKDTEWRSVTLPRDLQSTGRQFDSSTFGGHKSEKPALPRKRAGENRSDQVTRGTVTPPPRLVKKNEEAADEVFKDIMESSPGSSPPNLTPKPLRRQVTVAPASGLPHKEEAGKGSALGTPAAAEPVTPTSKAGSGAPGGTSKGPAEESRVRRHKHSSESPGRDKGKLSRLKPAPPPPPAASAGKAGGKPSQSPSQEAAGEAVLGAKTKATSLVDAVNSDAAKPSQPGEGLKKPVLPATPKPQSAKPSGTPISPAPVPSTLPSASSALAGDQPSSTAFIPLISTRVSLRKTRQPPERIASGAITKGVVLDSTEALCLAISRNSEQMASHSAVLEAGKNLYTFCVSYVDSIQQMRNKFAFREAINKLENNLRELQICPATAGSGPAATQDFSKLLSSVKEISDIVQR

| Structure (SMILES) | IC50 [1] [nM] | inhibition [2] [%] | IC50 [3] [nM] |
| --- | --- | --- | --- |
| CN(C)CCNC(=O)/C=C/c1csc(/C=C2\Oc3ccccc3NC2=O)c1 | > 1040 | – | – |
| O=C1Nc2ccccc2O/C1=C\c1ccc(/C=C/C(=O)N2CCCC2)o1 | > 1140 | – | – |
| O=C1Nc2ccccc2O/C1=C\c1ccc(/C=C/C(=O)N2CCN(CCO)CC2)o1 | – | 76.7 | – |
| O=C(/C=C/c1cccc(/C=C2\Oc3ccccc3NC2=O)c1)NCc1ccccn1 | > 1010 | – | – |
| CN(C)CCNC(=O)/C=C/c1ccc(/C=C2\Oc3ccccc3N(C)C2=O)s1 | 820 | 83.9 | – |
| O=C1Nc2ccccc2O/C1=C\c1cc(/C=C/C(=O)N2CCCC2)cs1 | > 1090 | – | – |
| CN1C(=O)/C(=C/c2ccc(/C=C/C(=O)NCc3cccnc3)s2)Oc2ccccc21 | 1900 | 76.7 | 1480 |
| CN1C(=O)/C(=C/c2ccc(/C=C/C(=O)NCc3ccncc3)s2)Oc2ccccc21 | 1760 | 77.1 | – |
| O=C(/C=C/c1ccc(/C=C2\Oc3ccccc3NC2=O)s1)Nc1ccc(N2CCOCC2)cc1 | 290 | – | – |
| CN1C(=O)/C(=C/c2ccc(/C=C/C(=O)N3CCN(CCO)CC3)s2)Oc2ccccc21 | – | 88.3 | – |
| CN1C(=O)/C(=C/c2cccc(/C=C/C(=O)Nc3ccc(N4CCOCC4)cc3)c2)Oc2ccccc21 | – | 79.9 | – |
| CN(C)CCNC(=O)/C=C/c1cccc(/C=C2\Oc3ccccc3NC2=O)c1 | – | 70.8 | – |
| O=C(/C=C/c1ccc(/C=C2\Oc3ccccc3NC2=O)s1)NCc1ccccn1 | > 991 | – | – |
| CN1C(=O)/C(=C/c2ccc(/C=C/C(=O)N3CCCC3)s2)Oc2ccccc21 | – | 79.2 | – |
